Laboratory results reported in the SangsterLogP compilation.

assay: method code SF-HPLC, from DOI: 10.1111/j.2042-7158.1987.tb06262.x, PMID: 2884287; settings: pH 3.0

In order of falling logD:
1. Cn1c(=O)[nH]c2[nH]c(=O)n(C)c2c1=O  -0.22
2. Cn1c(=O)[nH]c2nc[nH]c2c1=O  -0.27
3. Cn1c(=O)c2c([nH]c(=O)n2C)n(C)c1=O  -0.37
4. Cn1c(=O)c2[nH]c(=O)[nH]c2n(C)c1=O  -0.52
5. Cn1c(=O)[nH]c2[nH]c(=O)[nH]c2c1=O  -0.57
6. Cn1c(N)c(NC=O)c(=O)n(C)c1=O  -0.64
7. Cn1cnc2[nH]c(=O)[nH]c(=O)c21  -0.89
8. Cn1c(=O)[nH]c(=O)c2[nH]c(=O)[nH]c21  -1.08
9. Cn1c(=O)[nH]c2[nH]c(=O)[nH]c(=O)c21  -1.18
10. CN(C=O)c1c(N)n(C)c(=O)[nH]c1=O  -1.3
11. CN(C=O)c1c(N)n(C)c(=O)n(C)c1=O  -1.32
12. Cn1c(=O)[nH]c(=O)c2c1[nH]c(=O)n2C  -1.33
13. CN(C=O)c1c(N)[nH]c(=O)n(C)c1=O  -2.03
